Measured values reported in ChEMBL document CHEMBL4385643, “Design of a brain-penetrant CDK4/6 inhibitor for glioblastoma” (Bioorg Med Chem Lett, 2019).

Tests used:
[1] = molecular target: Vascular endothelial growth factor receptor 1 (Homo sapiens) (UniProt P17948); assay: Inhibition of recombinant human GST-tagged FLT1 catalytic domain (781 to 1338 residues) expressed in baculovirus expression system at 0.1 uM using tyrosine-4 peptide as substrate incubated for 60 mins by Z'-LYTE assay relative to control
[2] = molecular target: 5'-AMP-activated protein kinase catalytic subunit alpha-1 (Homo sapiens) (UniProt Q13131); assay: Inhibition of recombinant full length human PRKAA1 expressed in baculovirus expression system at 0.1 uM using CREBtide as substrate 60 mins by Lanthascreen assay relative to control
Sequence of 5'-AMP-activated protein kinase catalytic subunit alpha-1 (Homo sapiens) (Q13131 whole entry, looked up): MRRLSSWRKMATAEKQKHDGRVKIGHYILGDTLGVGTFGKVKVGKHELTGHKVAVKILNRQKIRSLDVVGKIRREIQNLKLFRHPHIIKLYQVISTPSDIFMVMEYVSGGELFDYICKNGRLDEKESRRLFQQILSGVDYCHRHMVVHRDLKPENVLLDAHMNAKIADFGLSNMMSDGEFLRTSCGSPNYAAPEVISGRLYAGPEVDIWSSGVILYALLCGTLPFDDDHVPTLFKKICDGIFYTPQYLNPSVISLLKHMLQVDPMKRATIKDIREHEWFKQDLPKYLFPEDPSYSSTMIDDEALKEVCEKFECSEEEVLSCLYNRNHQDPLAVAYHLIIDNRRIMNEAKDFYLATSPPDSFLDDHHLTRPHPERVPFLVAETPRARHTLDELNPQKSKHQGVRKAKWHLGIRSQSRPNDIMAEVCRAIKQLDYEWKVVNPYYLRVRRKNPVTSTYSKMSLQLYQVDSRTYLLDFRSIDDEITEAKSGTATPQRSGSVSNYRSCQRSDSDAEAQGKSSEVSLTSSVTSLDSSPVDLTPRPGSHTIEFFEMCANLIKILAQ

[3] = molecular target: Cytoplasmic tyrosine-protein kinase BMX (Homo sapiens) (UniProt P51813); assay: Inhibition of recombinant full length human His-tagged BMX expressed in baculovirus expression system at 0.1 uM using tyrosine-1 peptide as substrate incubated for 60 mins by Z'-LYTE assay relative to control
[4] = molecular target: Serine/threonine-protein kinase D1 (Homo sapiens) (UniProt Q15139); assay: Inhibition of recombinant full length human GST-tagged PKD1 expressed in baculovirus expression system at 0.1 uM using serine/threonine-17 peptide as substrate incubated for 60 mins by Z'-LYTE assay relative to control
[5] = molecular target: LIM domain kinase 1 (Homo sapiens) (UniProt P53667); assay: Inhibition of tracer 236 binding to recombinant human His-tagged LIMK1 catalytic domain (285 to 638 residues) expressed in baculovirus expression system at 0.1 uM measured after 60 mins by Lanthascreen assay relative to control
[6] = molecular target: Cyclin-Y/Cyclin-dependent kinase 16 (Homo sapiens) (UniProt Q00536+Q8ND76); assay: Inhibition of tracer 236 binding to recombinant human GST-tagged CDK16/cyclin Y catalytic domain (CDK16: 108 to end, Cyclin Y: 2 to end) expressed by baculovirus in Sf9 insect cells expression system at 0.1 uM measured after 60 mins by Lanthascreen assay relative to control
[7] = molecular target: Serine/threonine-protein kinase TBK1 (Homo sapiens) (UniProt Q9UHD2); assay: Inhibition of recombinant full length human GST-tagged TBK1 expressed in insect expression system at 0.1 uM using serine/threonine-5 peptide as substrate incubated for 60 mins by Z'-LYTE assay relative to control
[8] = molecular target: Tyrosine-protein kinase receptor UFO (Homo sapiens) (UniProt P30530); assay: Inhibition of recombinant full length human GST-tagged AXL expressed in insect expression system at 0.1 uM using tyrosine-6 peptide as substrate incubated for 60 mins by Z'-LYTE assay relative to control
Sequence of Tyrosine-protein kinase receptor UFO (Homo sapiens) (P30530 whole entry, the tested form may be a part): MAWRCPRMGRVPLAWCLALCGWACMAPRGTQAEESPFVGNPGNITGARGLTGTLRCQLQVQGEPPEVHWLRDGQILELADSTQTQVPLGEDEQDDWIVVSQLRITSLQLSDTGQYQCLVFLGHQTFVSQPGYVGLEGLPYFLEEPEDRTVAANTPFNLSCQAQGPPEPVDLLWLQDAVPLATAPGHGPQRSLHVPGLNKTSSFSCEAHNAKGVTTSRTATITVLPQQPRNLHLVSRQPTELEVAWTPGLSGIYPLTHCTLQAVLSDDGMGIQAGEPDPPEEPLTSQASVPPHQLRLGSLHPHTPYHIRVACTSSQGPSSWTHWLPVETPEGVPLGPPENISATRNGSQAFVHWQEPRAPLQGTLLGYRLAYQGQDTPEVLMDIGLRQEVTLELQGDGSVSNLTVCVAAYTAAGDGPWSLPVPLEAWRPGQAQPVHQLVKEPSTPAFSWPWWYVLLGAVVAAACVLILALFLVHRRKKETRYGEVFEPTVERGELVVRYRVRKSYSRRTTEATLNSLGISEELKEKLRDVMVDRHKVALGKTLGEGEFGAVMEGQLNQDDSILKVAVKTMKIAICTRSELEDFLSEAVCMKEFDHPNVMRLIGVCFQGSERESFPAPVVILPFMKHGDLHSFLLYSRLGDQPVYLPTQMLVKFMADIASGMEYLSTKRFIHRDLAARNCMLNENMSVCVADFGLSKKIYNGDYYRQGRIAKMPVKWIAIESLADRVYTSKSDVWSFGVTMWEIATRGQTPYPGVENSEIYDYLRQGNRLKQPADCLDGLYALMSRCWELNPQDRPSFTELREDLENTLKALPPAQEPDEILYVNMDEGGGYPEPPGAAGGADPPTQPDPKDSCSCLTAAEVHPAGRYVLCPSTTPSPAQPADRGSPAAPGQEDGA

[9] = molecular target: Insulin receptor-related protein (Homo sapiens) (UniProt P14616); assay: Inhibition of recombinant human GST-tagged IRR (944 to 1297 residues) expressed in baculovirus expression system at 0.1 uM using tyrosine-4 peptide as substrate incubated for 60 mins by Z'-LYTE assay relative to control
[10] = molecular target: SRSF protein kinase 3 (Homo sapiens) (UniProt Q9UPE1); assay: Inhibition of recombinant full length human GST-tagged MSSK1 expressed in baculovirus expression system at 0.1 uM using serine/threonine-18 peptide as substrate incubated for 60 mins by Z'-LYTE assay relative to control
[11] = molecular target: Serine/threonine-protein kinase 33 (Homo sapiens) (UniProt Q9BYT3); assay: Inhibition of tracer 236 binding to recombinant full length human His-tagged STK33 expressed in baculovirus expression system at 0.1 uM measured after 60 mins by Lanthascreen assay relative to control
[12] = molecular target: G protein-coupled receptor kinase 3 (Homo sapiens) (UniProt P35626); assay: Inhibition of recombinant full length human GST-tagged GRK3 expressed in baculovirus expression system at 0.1 uM using serine/threonine-16 peptide as substrate incubated for 60 mins by Z'-LYTE assay relative to control
[13] = molecular target: Leucine-rich repeat serine/threonine-protein kinase 2 (Homo sapiens) (UniProt Q5S007); assay: Inhibition of recombinant human GST-tagged LRRK2 catalytic domain (970 to 2527 amino acids) expressed in baculovirus expression system at 0.1 uM using ERM (LRRKtide) peptide as substrate incubated for 60 mins by Adapta assay relative to control
[14] = molecular target: Mitogen-activated protein kinase kinase kinase 8 (Homo sapiens) (UniProt P41279); assay: Inhibition of recombinant human GST-tagged TPL2 catalytic domain (30 to 397 residues) expressed in baculovirus expression system at 0.1 uM using serine/threonine-3 peptide as substrate incubated for 60 mins by Z'-LYTE assay relative to control
[15] = molecular target: MAP kinase-activated protein kinase 2 (Homo sapiens) (UniProt P49137); assay: Inhibition of recombinant full length human His-tagged MAPKAPK2 expressed in Escherichia coli expression system at 0.1 uM using serine/threonine-4 peptide as substrate incubated for 60 mins by Z'-LYTE assay relative to control
Sequence of MAP kinase-activated protein kinase 2 (Homo sapiens) (P49137 whole entry, looked up, canonical isoform): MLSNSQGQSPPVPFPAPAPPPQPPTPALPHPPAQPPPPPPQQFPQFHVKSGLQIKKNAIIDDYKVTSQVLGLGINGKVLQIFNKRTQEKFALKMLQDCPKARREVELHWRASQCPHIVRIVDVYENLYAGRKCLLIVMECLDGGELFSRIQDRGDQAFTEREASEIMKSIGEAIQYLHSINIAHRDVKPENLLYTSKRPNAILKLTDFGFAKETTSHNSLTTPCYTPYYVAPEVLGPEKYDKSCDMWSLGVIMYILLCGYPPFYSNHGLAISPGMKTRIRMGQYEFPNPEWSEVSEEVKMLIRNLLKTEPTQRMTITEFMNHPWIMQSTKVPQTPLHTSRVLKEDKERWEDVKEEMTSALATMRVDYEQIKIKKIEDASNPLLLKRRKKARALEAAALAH

[16] = molecular target: Casein kinase I isoform delta (Homo sapiens) (UniProt P48730); assay: Inhibition of recombinant full length human GST-tagged CK1delta expressed in baculovirus expression system at 0.1 uM using serine/threonine-11 peptide as substrate incubated for 60 mins by Z'-LYTE assay relative to control
Sequence of Casein kinase I isoform delta (Homo sapiens) (P48730 whole entry, looked up, canonical isoform): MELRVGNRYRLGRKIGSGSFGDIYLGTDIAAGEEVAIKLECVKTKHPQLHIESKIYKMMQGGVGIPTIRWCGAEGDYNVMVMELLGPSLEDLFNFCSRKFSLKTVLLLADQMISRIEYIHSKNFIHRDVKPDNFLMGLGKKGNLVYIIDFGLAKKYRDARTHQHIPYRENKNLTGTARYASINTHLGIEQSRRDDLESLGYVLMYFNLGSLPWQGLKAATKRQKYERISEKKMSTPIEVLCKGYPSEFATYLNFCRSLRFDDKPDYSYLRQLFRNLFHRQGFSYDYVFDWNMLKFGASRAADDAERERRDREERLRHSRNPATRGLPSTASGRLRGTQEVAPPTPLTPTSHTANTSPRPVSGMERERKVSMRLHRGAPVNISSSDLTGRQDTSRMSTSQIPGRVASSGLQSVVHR

[17] = molecular target: Protein-tyrosine kinase 6 (Homo sapiens) (UniProt Q13882); assay: Inhibition of recombinant full length human His-tagged BRK expressed in baculovirus expression system at 0.1 uM using tyrosine-1 peptide as substrate incubated for 60 mins by Z'-LYTE assay relative to control
Sequence of Protein-tyrosine kinase 6 (Homo sapiens) (Q13882 whole entry, looked up): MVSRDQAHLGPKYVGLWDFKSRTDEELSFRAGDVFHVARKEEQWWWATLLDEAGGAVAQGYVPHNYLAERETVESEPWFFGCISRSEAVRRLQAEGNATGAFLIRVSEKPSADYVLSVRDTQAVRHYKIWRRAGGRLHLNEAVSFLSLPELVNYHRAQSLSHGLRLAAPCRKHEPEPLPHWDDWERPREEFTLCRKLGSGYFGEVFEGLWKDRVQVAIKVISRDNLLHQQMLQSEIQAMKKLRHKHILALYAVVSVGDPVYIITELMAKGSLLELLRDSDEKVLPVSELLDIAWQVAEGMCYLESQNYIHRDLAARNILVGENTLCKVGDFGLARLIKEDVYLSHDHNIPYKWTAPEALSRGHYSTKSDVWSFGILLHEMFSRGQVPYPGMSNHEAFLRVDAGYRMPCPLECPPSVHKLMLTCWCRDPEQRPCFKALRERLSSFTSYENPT

[18] = molecular target: Tyrosine-protein kinase BTK (Homo sapiens) (UniProt Q06187); assay: Inhibition of recombinant full length human His-tagged BTK expressed in baculovirus expression system at 0.1 uM using tyrosine-1 peptide as substrate incubated for 60 mins by Z'-LYTE assay relative to control
[19] = molecular target: CDK3/Cyclin E (Homo sapiens) (UniProt P24864+Q00526); assay: Inhibition of tracer 236 binding to recombinant human GST-tagged CDK3/CyclinE1 expressed by baculovirus in Sf9 insect cells expression system at 0.1 uM measured after 60 mins by Lanthascreen assay relative to control
[20] = molecular target: Bone morphogenetic protein receptor type-1A (Homo sapiens) (UniProt P36894); assay: Inhibition of tracer 178 binding to recombinant human GST-tagged BMPR1A catalytic domain (187 to 532 amino acids) expressed insect cell expression system at 0.1 uM measured after 60 mins by Lanthascreen assay relative to control
[21] = molecular target: Tyrosine-protein kinase ITK/TSK (Homo sapiens) (UniProt Q08881); assay: Inhibition of recombinant full length human GST-tagged ITK expressed in baculovirus expression system at 0.1 uM using tyrosine-1 peptide as substrate incubated for 60 mins by Z'-LYTE assay relative to control
Sequence of Tyrosine-protein kinase ITK/TSK (Homo sapiens) (Q08881 whole entry, the tested form may be a part): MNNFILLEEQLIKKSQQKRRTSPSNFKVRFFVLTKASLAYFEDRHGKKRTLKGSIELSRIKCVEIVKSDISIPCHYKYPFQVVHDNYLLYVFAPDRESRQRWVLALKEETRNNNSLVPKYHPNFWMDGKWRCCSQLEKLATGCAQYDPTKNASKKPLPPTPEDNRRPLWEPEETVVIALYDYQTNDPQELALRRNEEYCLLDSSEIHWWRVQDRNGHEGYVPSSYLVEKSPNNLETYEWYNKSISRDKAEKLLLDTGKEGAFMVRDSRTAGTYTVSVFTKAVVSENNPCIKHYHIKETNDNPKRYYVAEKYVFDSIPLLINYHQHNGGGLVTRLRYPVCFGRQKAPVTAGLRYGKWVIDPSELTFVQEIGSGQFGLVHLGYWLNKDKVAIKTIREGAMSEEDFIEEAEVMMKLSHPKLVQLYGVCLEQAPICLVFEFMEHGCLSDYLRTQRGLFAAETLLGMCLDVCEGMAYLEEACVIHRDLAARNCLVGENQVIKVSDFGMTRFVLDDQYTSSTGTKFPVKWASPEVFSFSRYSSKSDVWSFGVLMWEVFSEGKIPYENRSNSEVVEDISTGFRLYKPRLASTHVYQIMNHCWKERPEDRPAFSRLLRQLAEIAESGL

[22] = molecular target: Hepatocyte growth factor receptor (Homo sapiens) (UniProt P08581); assay: Inhibition of recombinant human His-tagged MET (956 to 1390 residues) expressed in baculovirus expression system at 0.1 uM using tyrosine-6 peptide as substrate incubated for 60 mins by Z'-LYTE assay relative to control
Sequence of Hepatocyte growth factor receptor (Homo sapiens) (P08581 whole entry, the tested form may be a part): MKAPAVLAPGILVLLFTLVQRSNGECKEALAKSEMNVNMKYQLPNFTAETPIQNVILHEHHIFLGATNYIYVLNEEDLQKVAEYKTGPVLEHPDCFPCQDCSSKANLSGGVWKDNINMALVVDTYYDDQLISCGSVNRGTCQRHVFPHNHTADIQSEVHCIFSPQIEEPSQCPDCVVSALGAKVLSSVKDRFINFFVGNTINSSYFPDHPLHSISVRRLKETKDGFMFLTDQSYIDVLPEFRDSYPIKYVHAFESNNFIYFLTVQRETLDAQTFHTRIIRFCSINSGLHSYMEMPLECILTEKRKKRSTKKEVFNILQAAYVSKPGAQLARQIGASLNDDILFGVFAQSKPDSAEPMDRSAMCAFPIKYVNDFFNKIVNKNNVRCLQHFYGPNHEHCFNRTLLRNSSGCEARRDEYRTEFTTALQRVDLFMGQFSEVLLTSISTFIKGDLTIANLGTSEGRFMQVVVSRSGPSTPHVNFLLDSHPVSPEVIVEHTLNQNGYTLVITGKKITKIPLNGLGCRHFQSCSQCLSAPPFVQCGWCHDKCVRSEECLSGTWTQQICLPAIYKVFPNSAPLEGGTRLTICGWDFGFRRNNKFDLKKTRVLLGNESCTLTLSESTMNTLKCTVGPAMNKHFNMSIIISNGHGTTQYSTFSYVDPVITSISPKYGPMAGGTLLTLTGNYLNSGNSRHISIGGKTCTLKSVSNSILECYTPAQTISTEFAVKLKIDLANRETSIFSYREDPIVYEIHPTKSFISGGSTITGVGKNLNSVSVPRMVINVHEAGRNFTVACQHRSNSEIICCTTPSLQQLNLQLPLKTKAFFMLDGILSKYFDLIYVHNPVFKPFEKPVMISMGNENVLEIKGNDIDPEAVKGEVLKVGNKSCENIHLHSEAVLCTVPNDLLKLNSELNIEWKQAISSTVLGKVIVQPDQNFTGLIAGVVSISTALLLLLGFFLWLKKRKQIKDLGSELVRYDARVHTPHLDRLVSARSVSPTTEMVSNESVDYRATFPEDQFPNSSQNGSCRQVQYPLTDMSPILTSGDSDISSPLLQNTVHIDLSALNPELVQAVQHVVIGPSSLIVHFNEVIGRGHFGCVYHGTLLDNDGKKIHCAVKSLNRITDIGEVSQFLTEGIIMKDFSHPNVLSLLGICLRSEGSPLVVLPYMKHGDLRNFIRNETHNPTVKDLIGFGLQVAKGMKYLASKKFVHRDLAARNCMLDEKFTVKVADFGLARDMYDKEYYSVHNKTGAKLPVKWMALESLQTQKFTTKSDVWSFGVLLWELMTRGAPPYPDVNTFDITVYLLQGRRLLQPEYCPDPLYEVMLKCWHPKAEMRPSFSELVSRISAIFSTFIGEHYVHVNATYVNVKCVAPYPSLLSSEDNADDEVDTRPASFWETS

[23] = molecular target: STE20-like serine/threonine-protein kinase (Homo sapiens) (UniProt Q9H2G2); assay: Inhibition of tracer 236 binding to recombinant full length human GST-tagged SLK expressed in baculovirus expression system at 0.1 uM measured after 60 mins by Lanthascreen assay relative to control

CCN1CC2(C1)CN(c1ccc(Nc3ncc(F)c(-c4cnn5c4[C@H](C)CCCC5)n3)nc1)C2
inhibition [1]: 2.5% | inhibition [2]: 10% | inhibition [3]: -2% | inhibition [4]: 98.5% | inhibition [5]: -2% | inhibition [6]: 79% | inhibition [7]: 8% | inhibition [8]: 11.5% | inhibition [9]: 1% | inhibition [10]: 9% | inhibition [11]: 50% | inhibition [12]: 0% | inhibition [13]: 97.5% | inhibition [14]: 26% | inhibition [15]: 4.5% | inhibition [16]: 5% | inhibition [17]: 6.5% | inhibition [18]: 4% | inhibition [19]: 56.5% | inhibition [20]: 0.5% | inhibition [21]: 6% | inhibition [22]: 10% | inhibition [23]: 10.5%

CCN1CCN(Cc2ccc(Nc3ncc(F)c(-c4cc(F)c5nc(C)n(C(C)C)c5c4)n3)nc2)CC1 [ABEMACICLIB]
inhibition [1]: 3% | inhibition [2]: 13.5% | inhibition [3]: 5.5% | inhibition [4]: 62.5% | inhibition [5]: 3.7% | inhibition [6]: 86.5% | inhibition [7]: 43% | inhibition [8]: 15% | inhibition [9]: 6% | inhibition [10]: 3.5% | inhibition [11]: 50.8% | inhibition [12]: 0.5% | inhibition [13]: 74.6% | inhibition [14]: 11% | inhibition [15]: 14.5% | inhibition [16]: 10.5% | inhibition [17]: 5% | inhibition [18]: 3% | inhibition [19]: 24.5% | inhibition [20]: -0.3% | inhibition [21]: 0.5% | inhibition [22]: 32.5% | inhibition [23]: 9.3%
